Tests used:
[1] = test system: NF-kB pathway (TNF-α secretion by THP-1 cells); experiment: TNF-α secretion assay in LPS-stimulated THP-1 cells, Lumit immunoassay; assay type: cell-based, human; conditions: Homo sapiens, THP-1, 3 h, monocytic THP-1 cells, LPS 10 ng/mL, relative IC50, 10 concentrations, geometric mean
How it was run: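 THP-1 monocytes in RPMI with 5% FBS were treated with compound, then stimulated with 10 ng/mL LPS for 3 h. Secreted TNF-α was measured in-plate by Lumit immunoassay. Relative IC50 came from 10-concentration curves fitted with a 4-parameter logistic model, reported as geometric mean.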

NLRP3 inflammasome = target: T1, NLRP3 inflammasome (Homo sapiens, UniProt Q96P20); experiment: IL-1β secretion assay (NLRP3 IC50) in LPS-primed, nigericin-activated THP-1 cells, HTRF; assay type: cell-based; conditions: monocytic THP-1 cells; LPS 10 ng/mL 3 h priming, then compound + nigericin 10 μM 2 h; relative IC50, 10 concentrations, geometric mean
T1 construct: endogenous in cells; host or cells: THP-1 monocytic cells
How it was run: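 THP-1 cells primed with LPS 10 ng/mL for 3 h at 37° C., then compound (10-point 1:3 dilution, 0.1% DMSO) added with 10 μM nigericin for 2 h. Supernatant IL-1β measured by HTRF; relative IC50 from a 4-parameter logistic fit, reported as geometric mean.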

T1 sequence (Q96P20 whole entry): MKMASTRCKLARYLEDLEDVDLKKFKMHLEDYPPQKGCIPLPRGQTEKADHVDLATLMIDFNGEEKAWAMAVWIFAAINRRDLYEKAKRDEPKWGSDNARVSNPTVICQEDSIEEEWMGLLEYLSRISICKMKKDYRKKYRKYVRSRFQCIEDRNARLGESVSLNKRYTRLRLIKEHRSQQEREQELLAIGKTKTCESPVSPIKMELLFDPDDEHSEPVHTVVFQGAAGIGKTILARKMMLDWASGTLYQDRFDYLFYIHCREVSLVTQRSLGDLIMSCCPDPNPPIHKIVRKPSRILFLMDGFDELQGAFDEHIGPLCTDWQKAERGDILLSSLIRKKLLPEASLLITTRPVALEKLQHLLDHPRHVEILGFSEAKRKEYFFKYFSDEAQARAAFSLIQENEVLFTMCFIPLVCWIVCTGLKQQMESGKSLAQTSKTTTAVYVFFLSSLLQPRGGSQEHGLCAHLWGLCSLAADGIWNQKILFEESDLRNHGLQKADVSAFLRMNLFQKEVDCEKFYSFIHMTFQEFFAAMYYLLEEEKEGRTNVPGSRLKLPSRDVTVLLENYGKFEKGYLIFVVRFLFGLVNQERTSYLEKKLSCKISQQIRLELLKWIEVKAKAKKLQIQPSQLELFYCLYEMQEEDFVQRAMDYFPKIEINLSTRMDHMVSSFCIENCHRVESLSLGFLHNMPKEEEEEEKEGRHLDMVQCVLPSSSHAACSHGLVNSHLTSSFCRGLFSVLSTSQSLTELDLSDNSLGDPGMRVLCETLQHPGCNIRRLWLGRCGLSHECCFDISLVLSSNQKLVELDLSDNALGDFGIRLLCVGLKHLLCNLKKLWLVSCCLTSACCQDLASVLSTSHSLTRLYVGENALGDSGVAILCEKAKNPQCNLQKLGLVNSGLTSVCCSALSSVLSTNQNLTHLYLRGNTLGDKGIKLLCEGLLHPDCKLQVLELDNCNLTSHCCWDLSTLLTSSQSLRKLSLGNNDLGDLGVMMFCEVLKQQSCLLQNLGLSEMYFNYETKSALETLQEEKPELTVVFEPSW

Compound | IC50 [1] | IC50 (NLRP3 inflammasome)
Cc1cc(N2CCO[C@@H]3CCN(C)C[C@@H]32)nnc1-c1cccc(F)c1O [Example 356, 2-[6-[(4aS,8aR)-6-methyl-3,4a,5,7,8,8a-hexahydro-2H-pyrido[4,3-b][1,4]oxazin-4-yl]-4-methyl-pyridazin-3-yl]-6-fluoro-phenol] | > 10000 nM | 61 nM
CC(=O)N1CC[C@H]2OCCN(c3cc(C)c(-c4ccc(Cl)cc4O)nn3)[C@H]2C1 [Example 357, 1-[(4aS,8aR)-4-[6-(4-chloro-2-hydroxy-phenyl)-5-methyl-pyridazin-3-yl]-3,4a,5,7,8,8a-hexahydro-2H-pyrido[4,3-b][1,4]oxazin-6-yl]ethanone] | > 10000 nM | 48 nM
CCc1cccc(O)c1-c1ccc(N2CCO[C@@H]3CCN(C)C[C@@H]32)nn1 [Example 358, 2-[6-[(4aS,8aR)-6-methyl-3,4a,5,7,8,8a-hexahydro-2H-pyrido[4,3-b][1,4]oxazin-4-yl]pyridazin-3-yl]-3-ethyl-phenol] | > 10000 nM | 11 nM
Cc1cc(C)c(-c2ccc(N3C[C@@H](CO)O[C@H](C)C3)nn2)c(O)c1 [Example 359, 2-[6-[(2S,6R)-2-(hydroxymethyl)-6-methyl-morpholin-4-yl]pyridazin-3-yl]-3,5-dimethyl-phenol] | > 10000 nM | 98 nM
CC(=O)N1CC[C@H]2OCCN(c3cc(C)c(-c4ccc(C(F)(F)F)cc4O)nn3)[C@H]2C1 [Example 363, 1-[(4aS,8aR)-4-[6-[2-hydroxy-4-(trifluoromethyl)phenyl]-5-methyl-pyridazin-3-yl]-3,4a,5,7,8,8a-hexahydro-2H-pyrido[4,3-b][1,4]oxazin-6-yl]ethanone] | > 10000 nM | 16 nM
Cc1cc(C)c(-c2ccc(N3C[C@H](CO)O[C@H](C)C3)nn2)c(O)c1 [Example 365, 2-[6-[(2R,6R)-2-(hydroxymethyl)-6-methyl-morpholin-4-yl]pyridazin-3-yl]-3,5-dimethyl-phenol] | > 10000 nM | 28 nM
Cc1cc(C(F)(F)F)cc(O)c1-c1nnc(N2C[C@@H](O)CC2=O)cc1C(F)F [Example 372, (4S)-1-[5-(difluoromethyl)-6-[2-hydroxy-6-methyl-4-(trifluoromethyl)phenyl]pyridazin-3-yl]-4-hydroxy-pyrrolidin-2-one] | > 10000 nM | 94 nM
Cc1ccc(-c2nnc(N3CCO[C@@H]4CCN(C)C[C@@H]43)cc2C)c(O)c1 [Example 373, 2-[6-[(4aS,8aR)-6-methyl-3,4a,5,7,8,8a-hexahydro-2H-pyrido[4,3-b][1,4]oxazin-4-yl]-4-methyl-pyridazin-3-yl]-5-methyl-phenol] | > 10000 nM | 1.1 nM
Cc1cc(N2CCO[C@@H]3CCN(C)C[C@@H]32)nnc1-c1ccc(Cl)cc1O [Example 379, 2-[6-[(4aS,8aR)-6-methyl-3,4a,5,7,8,8a-hexahydro-2H-pyrido[4,3-b][1,4]oxazin-4-yl]-4-methyl-pyridazin-3-yl]-5-chloro-phenol] | > 10000 nM | 1 nM
CCc1cc(C(F)(F)F)cc(O)c1-c1ccc(N2CCO[C@@H]3CCN(C(C)=O)C[C@@H]32)nn1 [Example 380, 1-[(4aS,8aR)-4-[6-[2-ethyl-6-hydroxy-4-(trifluoromethyl)phenyl]pyridazin-3-yl]-3,4a,5,7,8,8a-hexahydro-2H-pyrido[4,3-b][1,4]oxazin-6-yl]ethanone] | > 10000 nM | 4 nM
CCc1cc(Cl)cc(O)c1-c1ccc(N2CCO[C@@H]3CCN(C(C)=O)C[C@@H]32)nn1 [Example 381, 1-[(4aS,8aR)-4-[6-(4-chloro-2-ethyl-6-hydroxy-phenyl)pyridazin-3-yl]-3,4a,5,7,8,8a-hexahydro-2H-pyrido[4,3-b][1,4]oxazin-6-yl]ethanone] | > 10000 nM | 3 nM
Oc1cc(C(F)(F)F)ccc1-c1nnc(N2CCO[C@@H]3CCNC[C@@H]32)cc1C(F)F [Example 382, 2-[6-[(4aS,8aR)-2,3,4a,5,6,7,8,8a-octahydropyrido[4,3-b][1,4]oxazin-4-yl]-4-(difluoromethyl)pyridazin-3-yl]-5-(trifluoromethyl)phenol] | > 10000 nM | 12 nM
CC(=O)N1CC[C@H]2OCCN(c3cc(C(F)F)c(-c4ccc(C(F)(F)F)cc4O)nn3)[C@H]2C1 [Example 386, 1-[(4aS,8aR)-4-[5-(difluoromethyl)-6-[2-hydroxy-4-(trifluoromethyl)phenyl]pyridazin-3-yl]-3,4a,5,7,8,8a-hexahydro-2H-pyrido[4,3-b][1,4]oxazin-6-yl]ethanone] | > 10000 nM | 19 nM
CC(=O)N1CC[C@H]2OCCN(c3cc(C(F)F)c(-c4ccc(C)cc4O)nn3)[C@H]2C1 [Example 387, 1-[(4aS,8aR)-4-[5-(difluoromethyl)-6-(2-hydroxy-4-methyl-phenyl)pyridazin-3-yl]-3,4a,5,7,8,8a-hexahydro-2H-pyrido[4,3-b][1,4]oxazin-6-yl]ethanone] | > 10000 nM | 31 nM

Continued, values first:

IC50 [1] | IC50 (NLRP3 inflammasome) | Compound
> 10000 nM | 33 nM | Cc1cc(C)c(-c2ccc(N3C[C@@H](CO)O[C@@H](C)C3)nn2)c(O)c1 [Example 390, 2-[6-[(2S,6S)-2-(hydroxymethyl)-6-methyl-morpholin-4-yl]pyridazin-3-yl]-3,5-dimethyl-phenol]
> 10000 nM | 31 nM | Cc1cc(C(F)(F)F)cc(O)c1-c1ccc(N2CC[C@H]3CCN(C)C[C@H]32)nn1 [Example 391, 2-[6-[(3aR,7aS)-6-methyl-3,3a,4,5,7,7a-hexahydro-2H-pyrrolo[2,3-c]pyridin-1-yl]pyridazin-3-yl]-3-methyl-5-(trifluoromethyl)phenol]
> 10000 nM | 1 nM | Cc1cc(C(F)(F)F)cc(O)c1-c1ccc(N2CC[C@@H]3CCN(C)C[C@@H]32)nn1 [Example 392, 2-[6-[(3aS,7aR)-6-methyl-3,3a,4,5,7,7a-hexahydro-2H-pyrrolo[2,3-c]pyridin-1-yl]pyridazin-3-yl]-3-methyl-5-(trifluoromethyl)phenol]
> 10000 nM | 93 nM | [O-][S+]1CCN(c2ccc(-c3c(O)cc(Cl)cc3Cl)nn2)CC1 [Example 400, 3,5-dichloro-2-[6-(1-oxo-1,4-thiazinan-4-yl)pyridazin-3-yl]phenol]
> 10000 nM | 89 nM | CC(=O)N1CC[C@H]2OCCN(c3nnc(-c4c(C)cc(C)cc4O)cc3C(F)F)[C@H]2C1 [Example 405, 1-[(4aS,8aR)-4-[4-(difluoromethyl)-6-(2-hydroxy-4,6-dimethyl-phenyl)pyridazin-3-yl]-3,4a,5,7,8,8a-hexahydro-2H-pyrido[4,3-b][1,4]oxazin-6-yl]ethanone]
> 10000 nM | 2 nM | CCc1cccc(O)c1-c1ccc(N2CCO[C@@H]3CCN(CC)C[C@@H]32)nn1 [Example 408, 2-[6-[(4aS,8aR)-6-ethyl-3,4a,5,7,8,8a-hexahydro-2H-pyrido[4,3-b][1,4]oxazin-4-yl]pyridazin-3-yl]-3-ethyl-phenol]
> 10000 nM | 18 nM | CCN1CC[C@H]2OCCN(c3ccc(-c4c(C)cccc4O)nn3)[C@H]2C1 [Example 412, 2-[6-[(4aS,8aR)-6-ethyl-3,4a,5,7,8,8a-hexahydro-2H-pyrido[4,3-b][1,4]oxazin-4-yl]pyridazin-3-yl]-3-methyl-phenol]
> 10000 nM | 13 nM | CCc1cc(C(F)(F)F)cc(O)c1-c1ccc(N2CCO[C@H](CO)C2)nn1 [Example 418, 3-ethyl-2-[6-[(2S)-2-(hydroxymethyl)morpholin-4-yl]pyridazin-3-yl]-5-(trifluoromethyl)phenol]
> 10000 nM | 55 nM | CCc1cccc(O)c1-c1cc(C(F)F)c(N2CCO[C@@H]3CCN(C)C[C@@H]32)nn1 [Example 425, 2-[6-[(4aS,8aR)-6-methyl-3,4a,5,7,8,8a-hexahydro-2H-pyrido[4,3-b][1,4]oxazin-4-yl]-5-(difluoromethyl)pyridazin-3-yl]-3-ethyl-phenol]
> 10000 nM | < 0.3 nM | Cc1cc(N2CCO[C@@H]3CCN(C)C[C@@H]32)nnc1-c1ccc(C(F)(F)F)cc1O [Example 430, 2-[6-[(4aS,8aR)-6-methyl-3,4a,5,7,8,8a-hexahydro-2H-pyrido[4,3-b][1,4]oxazin-4-yl]-4-methyl-pyridazin-3-yl]-5-(trifluoromethyl)phenol]
> 10000 nM | 62 nM | CC(=O)N1CC[C@H]2OCCN(c3cc(C)c(-c4ccc(C)cc4O)nn3)[C@H]2C1 [Example 431, 1-[(4aS,8aR)-4-[6-(2-hydroxy-4-methyl-phenyl)-5-methyl-pyridazin-3-yl]-3,4a,5,7,8,8a-hexahydro-2H-pyrido[4,3-b][1,4]oxazin-6-yl]ethanone]
> 10000 nM | 5 nM | CCc1cccc(O)c1-c1ccc(N2CCO[C@@H]3CCN(C(C)C)C[C@@H]32)nn1 [Example 432, 2-[6-[(4aS,8aR)-6-isopropyl-3,4a,5,7,8,8a-hexahydro-2H-pyrido[4,3-b][1,4]oxazin-4-yl]pyridazin-3-yl]-3-ethyl-phenol]
> 10000 nM | 2 nM | Cc1cc(C)c(-c2ccc(N3CCO[C@@H]4CCN(C(C)C)C[C@@H]43)nn2)c(O)c1 [Example 433, 2-[6-[(4aS,8aR)-6-isopropyl-3,4a,5,7,8,8a-hexahydro-2H-pyrido[4,3-b][1,4]oxazin-4-yl]pyridazin-3-yl]-3,5-dimethyl-phenol]

Reference: US20240360151A1 (SANOFI, priority 2023, published 2024)
